Values quoted from earlier work as cited in patent US7208487B2, “Compounds, compositions and methods” (Cytokinetics, Incorporated, priority 2002, dated 2007).

Test system: A549 cells

GI50 [nM]	SMILES
63	COc1cccc2c1C(=O)c1c(O)c3c(c(O)c1C2=O)C[C@@](O)(C(=O)CO)C[C@@H]3O[C@H]1C[C@H](N)[C@H](O)[C@H](C)O1 [doxorubicin]
1000	O=c1[nH]cc(F)c(=O)[nH]1 [5-fluorouracil]
500000	NC(=O)NO [hydroxyurea]
4	CC(=O)O[C@H]1C(=O)[C@@]2(C)[C@H]([C@H](OC(=O)c3ccccc3)[C@]3(O)C[C@H](OC(=O)[C@H](O)[C@@H](NC(=O)c4ccccc4)c4ccccc4)C(C)=C1C3(C)C)[C@]1(OC(C)=O)CO[C@@H]1C[C@@H]2O [paclitaxel]
